For orientation: IC50 means the midpoint of a concentration-inhibition curve. A high value points to lower potency.

Experiment [1] concerns the target T1, soluble epoxide hydrolase (sEH) (Homo sapiens, UniProt P34913).
T1 construct: gene EPHX2; human recombinant sEH; C-terminal hydrolase domain activity measured
T1 sequence (P34913 1-555): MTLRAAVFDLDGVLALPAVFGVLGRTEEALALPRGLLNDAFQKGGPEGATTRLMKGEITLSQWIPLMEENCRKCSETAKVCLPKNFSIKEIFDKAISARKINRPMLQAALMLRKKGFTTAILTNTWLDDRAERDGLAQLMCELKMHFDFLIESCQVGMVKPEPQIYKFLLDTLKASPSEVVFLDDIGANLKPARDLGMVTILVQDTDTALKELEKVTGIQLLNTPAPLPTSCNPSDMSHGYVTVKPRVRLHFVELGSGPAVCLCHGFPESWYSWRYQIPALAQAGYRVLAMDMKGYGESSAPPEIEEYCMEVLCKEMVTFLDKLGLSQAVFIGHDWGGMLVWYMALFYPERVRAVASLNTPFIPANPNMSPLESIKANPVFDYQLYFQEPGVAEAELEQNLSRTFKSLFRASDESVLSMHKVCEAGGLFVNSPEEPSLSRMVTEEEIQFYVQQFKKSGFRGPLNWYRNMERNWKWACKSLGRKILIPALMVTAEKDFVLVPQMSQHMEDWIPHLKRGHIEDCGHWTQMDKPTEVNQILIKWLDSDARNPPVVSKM
In words: cell-free fluorescence assay with PHOME substrate, concentration-response. Format: biochemical.

Experiment [2] addresses T1, soluble epoxide hydrolase (sEH). As to the kind of experiment: cell-free fluorescence assay with PHOME substrate, single concentration […]. The class given is biochemical. As to conditions: read-out: sEH Residual Activity (%).

For the compound `O=C(CCCCn1c(=O)[nH]c2ccccc2c1=O)Nc1ccc2c(c1)OCCO2` [compound 3, N-(2,3-dihydrobenzo[b][1,4]dioxin-6-yl)-5-(2,4-dioxo-1,2dihydroquinazolin-3(4H)yl)pentanamide], it took 8.8 ± 1.5 µM to reach half-maximal inhibition in experiment [1] (IC50).
Take `O=C(CCCCCn1c(=O)[nH]c2ccccc2c1=O)Nc1ccc2c(c1)OCCO2` [compound 4, N-(2,3-dihydrobenzo[b][1,4]dioxin-6-yl)-6-(2,4-dioxo-1,2-dihydroquinazolin-3(4H)-yl)hexanamide]: the IC50 in experiment [1] was determined as 4.5 ± 1 µM.
As for `O=C(CCCCCCn1c(=O)[nH]c2ccccc2c1=O)Nc1cncc(Br)c1` [compound 6, N-(5-bromopyridin-3-yl)-7-(2,4-dioxo-1,2-dihydroquinazolin-3(4H)-yl)heptanamide], the remaining activity at 10 µM in experiment [2] turned out to be 48.6 ± 3.8%.
Same read-out and setting: with `O=C(CCCCCn1c(=O)[nH]c2ccccc2c1=O)Nc1ccc(I)nc1` [compound 7, 6-(2,4-dioxo-1,2-dihydroquinazolin-3(4H)-yl)-N-(6-iodopyridin-3-yl)hexanamide] the figure was 67.2 ± 4.4%; with `O=C(CCCCCn1c(=O)[nH]c2ccccc2c1=O)Nc1ccc2ncsc2c1` [compound 8, N-(benzo[d]thiazol-6-yl)-6-(2,4-dioxo-1,2-dihydroquinazolin-3(4H)-yl)hexanamide], 51.7 ± 3.3%.

Source of the values: article PMC9228872, “Repositioning of Quinazolinedione-Based Compounds on Soluble Epoxide Hydrolase (sEH) through 3D Structure-Based Pharmacophore Model-Driven Investigation” (Molecules, 2022).
